Test results: ChEMBL document CHEMBL5523718, “Design, synthesis, molecular modeling, in vitro and in vivo biological evaluation of potent anthranilamide derivatives as dual P-glycoprotein and CYP3A4 inhibitors” (Eur J Med Chem, 2024)
≈ marks a conversion by molar mass, not a printed value.

Key:
[1] = biological target: T1, Broad substrate specificity ATP-binding cassette transporter ABCG2 (Homo sapiens, UniProt Q9UNQ0); experiment: Inhibition of BCRP (unknown origin) ATPase activity
T1 sequence (Q9UNQ0 whole entry): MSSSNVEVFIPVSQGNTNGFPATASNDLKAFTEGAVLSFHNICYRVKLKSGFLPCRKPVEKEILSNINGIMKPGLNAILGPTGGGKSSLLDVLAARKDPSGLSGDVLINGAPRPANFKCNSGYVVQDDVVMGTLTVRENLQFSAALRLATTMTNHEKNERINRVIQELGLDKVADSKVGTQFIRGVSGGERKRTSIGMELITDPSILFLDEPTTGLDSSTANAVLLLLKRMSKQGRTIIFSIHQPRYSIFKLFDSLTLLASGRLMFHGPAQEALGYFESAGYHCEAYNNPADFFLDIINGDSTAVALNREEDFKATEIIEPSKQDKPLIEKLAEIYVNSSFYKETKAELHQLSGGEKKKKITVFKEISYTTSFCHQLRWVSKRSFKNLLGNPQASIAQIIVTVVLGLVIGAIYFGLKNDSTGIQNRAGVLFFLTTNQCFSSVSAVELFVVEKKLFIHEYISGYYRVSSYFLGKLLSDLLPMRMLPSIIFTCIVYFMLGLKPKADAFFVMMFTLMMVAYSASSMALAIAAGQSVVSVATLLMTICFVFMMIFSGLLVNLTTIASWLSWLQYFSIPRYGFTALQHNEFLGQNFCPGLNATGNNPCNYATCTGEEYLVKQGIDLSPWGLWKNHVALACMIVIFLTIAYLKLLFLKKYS

[2] = MRT in CD-1 mouse at 10 mg/kg, po measured upto 8 hrs by LC-MS/MS analysis; assay type: ADME, organism-based; settings: in vivo
[3] = biological target: ATP-binding cassette sub-family C member 2 (Homo sapiens, UniProt Q92887); experiment: Inhibition of MRP2 (unknown origin) ATPase activity
[4] = biological target: T2, P-gp (ABCB1) (Homo sapiens, UniProt P08183); experiment: Inhibition of P-gp in human Caco-2 cells at 0.1 uM in presence of paclitaxel relative to control; assay type: cell-based; settings: Caco-2, probe paclitaxel
[5] = biological target: T2, P-gp (ABCB1); experiment: Inhibition of P-gp in human Caco-2 cells at 1 uM in presence of paclitaxel relative to control; assay type: cell-based; settings: Caco-2, probe paclitaxel
[6] = Metabolic stability in monkey liver microsome assessed as intrinsic clearance; assay type: ADME, Macaca mulatta; settings: rhesus monkey, microsomes
[7] = Inhibition of MRP1 (unknown origin) ATPase activity; design: species or system Homo sapiens
[8] = biological target: T2, P-gp (ABCB1); experiment: Inhibition of P-gp in human Caco-2 cells at 5 uM in presence of paclitaxel relative to control; assay type: cell-based; settings: Caco-2, probe paclitaxel
[9] = Metabolic stability in rat liver microsome assessed as half life; assay type: ADME; settings: liver microsomes
[10] = Metabolic stability in human liver microsome assessed as intrinsic clearance; assay type: ADME; settings: microsomes
[11] = Half life in CD-1 mouse at 10 mg/kg, po measured upto 8 hrs by LC-MS/MS analysis; assay type: ADME, organism-based; settings: in vivo
[12] = Metabolic stability in monkey liver microsome assessed as half life; assay type: ADME, Macaca mulatta; settings: rhesus monkey, liver microsomes
[13] = Metabolic stability in mouse liver microsome assessed as half life; assay type: ADME; settings: liver microsomes
[14] = biological target: T3, ATP-dependent translocase ABCB1 (Homo sapiens, UniProt P08183); experiment: Inhibition of P-gp (unknown origin) ATPase activity
[15] = tested on: MES-SA/Dx5; experiment: Cytotoxicity against human MES-SA/Dx5 cells at 1.28 uM incubated for 3 days by MTT assay relative to control; assay type: functional; settings: time 3 day
[16] = Metabolic stability in rat liver microsome assessed as intrinsic clearance; assay type: ADME; settings: microsomes
[17] = biological target: T2, P-gp (ABCB1); experiment: Inhibition of P-gp in human Caco-2 cells at 0.01 uM in presence of paclitaxel relative to control; assay type: cell-based; settings: Caco-2, probe paclitaxel
[18] = Metabolic stability in mouse liver microsome assessed as intrinsic clearance; assay type: ADME; settings: microsomes
[19] = Equilibrium solubility of compound in PBS at pH 7.4; assay type: physicochemical
[20] = biological target: T2, P-gp (ABCB1); experiment: Inhibition of P-gp in human Caco-2 cells at 10 uM in presence of paclitaxel relative to control; assay type: cell-based; settings: Caco-2, probe paclitaxel
[21] = biological target: T3, ATP-dependent translocase ABCB1; experiment: Inhibition of P-gp in human Caco-2 cells in presence of paclitaxel; assay type: cell-based
[22] = biological target: T3, ATP-dependent translocase ABCB1; experiment: Inhibition of P-gp in human MES-SA/Dx5 cells; assay type: cell-based
[23] = Metabolic stability in human liver microsome assessed as half life; assay type: ADME; settings: liver microsomes
[24] = Apparent permeability across basolateral to apical side in human Caco-2 cells assessed as drug recovery; assay type: ADME, cell-based; settings: read-out: Drug recovery
[25] = Apparent permeability of compound across apical to basolateral side in human Caco-2 cells; assay type: ADME, cell-based
[26] = biological target: T4, Cytochrome P450 3A4 (Homo sapiens, UniProt P08684); experiment: Inhibition of CYP3A4 in human Hepatocyte using Luciferin-IPA as substrate; assay type: ADME, cell-based
[27] = Apparent permeability of compound across basolateral to apical side in human Caco-2 cells; assay type: ADME, cell-based
[28] = biological target: T4, Cytochrome P450 3A4; experiment: Inhibition of CYP3A4 in human liver using luciferin-IPA as substrate microsome preincubated with compound for 10 mins followed by NADPH addition and measured after 5 mins; assay type: ADME, microsomes
[29] = Efflux ratio of apparent permeability across basolateral to apical side over apical to basolateral side in human Caco-2 cells; assay type: ADME, cell-based
[30] = Apparent permeability across apical to basolateral side in human Caco-2 cells assessed as drug recovery; assay type: ADME, cell-based; settings: read-out: Drug recovery
[31] = AUC (0 to t) in Sprague-Dawley rat at 20 mg/kg, po measured upto 24 hrs by LC-MS/MS analysis; assay type: ADME, organism-based; settings: in vivo
[32] = Cmax in Sprague-Dawley rat at 20 mg/kg, po measured upto 24 hrs by LC-MS/MS analysis; assay type: ADME, organism-based; settings: in vivo
[33] = MRT in Sprague-Dawley rat at 20 mg/kg, po measured upto 24 hrs by LC-MS/MS analysis; assay type: ADME, organism-based; settings: in vivo
[34] = Tmax in Sprague-Dawley rat at 20 mg/kg, po measured upto 24 hrs by LC-MS/MS analysis; assay type: ADME, organism-based; settings: in vivo

T3 sequence (P08183 whole entry): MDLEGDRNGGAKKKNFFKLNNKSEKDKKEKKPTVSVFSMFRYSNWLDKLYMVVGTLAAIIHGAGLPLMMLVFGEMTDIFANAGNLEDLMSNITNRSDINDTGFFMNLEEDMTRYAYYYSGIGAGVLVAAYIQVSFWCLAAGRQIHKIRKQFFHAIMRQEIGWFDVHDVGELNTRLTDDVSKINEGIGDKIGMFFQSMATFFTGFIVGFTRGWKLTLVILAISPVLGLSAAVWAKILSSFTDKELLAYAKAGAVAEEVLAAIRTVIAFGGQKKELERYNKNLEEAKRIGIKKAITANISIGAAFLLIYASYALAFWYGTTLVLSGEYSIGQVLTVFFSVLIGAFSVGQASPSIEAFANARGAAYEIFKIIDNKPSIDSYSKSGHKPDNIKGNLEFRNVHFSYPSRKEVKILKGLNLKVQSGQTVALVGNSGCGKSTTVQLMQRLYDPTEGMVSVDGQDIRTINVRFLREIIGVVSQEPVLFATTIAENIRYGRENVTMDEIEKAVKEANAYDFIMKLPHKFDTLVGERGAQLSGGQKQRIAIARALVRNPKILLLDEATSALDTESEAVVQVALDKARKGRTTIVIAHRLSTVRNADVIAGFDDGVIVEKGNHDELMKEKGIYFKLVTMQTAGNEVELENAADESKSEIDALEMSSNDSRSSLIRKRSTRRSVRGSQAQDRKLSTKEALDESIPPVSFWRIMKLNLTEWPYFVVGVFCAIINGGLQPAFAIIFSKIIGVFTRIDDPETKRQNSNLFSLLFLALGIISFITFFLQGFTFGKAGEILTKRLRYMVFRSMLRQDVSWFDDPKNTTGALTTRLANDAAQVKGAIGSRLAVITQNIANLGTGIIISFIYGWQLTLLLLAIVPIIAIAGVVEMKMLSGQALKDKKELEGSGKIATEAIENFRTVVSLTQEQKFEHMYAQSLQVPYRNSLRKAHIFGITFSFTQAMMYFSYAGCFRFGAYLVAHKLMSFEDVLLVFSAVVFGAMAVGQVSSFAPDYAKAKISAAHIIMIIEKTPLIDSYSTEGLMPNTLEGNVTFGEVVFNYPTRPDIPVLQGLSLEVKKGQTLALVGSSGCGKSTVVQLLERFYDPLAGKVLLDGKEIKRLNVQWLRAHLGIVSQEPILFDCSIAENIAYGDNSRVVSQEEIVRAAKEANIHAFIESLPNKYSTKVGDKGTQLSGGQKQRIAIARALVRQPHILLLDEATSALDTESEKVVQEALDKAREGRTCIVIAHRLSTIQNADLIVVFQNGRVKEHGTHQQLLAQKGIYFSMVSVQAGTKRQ
T2 sequence (P08183 whole entry): as above
T4 sequence (P08684 whole entry): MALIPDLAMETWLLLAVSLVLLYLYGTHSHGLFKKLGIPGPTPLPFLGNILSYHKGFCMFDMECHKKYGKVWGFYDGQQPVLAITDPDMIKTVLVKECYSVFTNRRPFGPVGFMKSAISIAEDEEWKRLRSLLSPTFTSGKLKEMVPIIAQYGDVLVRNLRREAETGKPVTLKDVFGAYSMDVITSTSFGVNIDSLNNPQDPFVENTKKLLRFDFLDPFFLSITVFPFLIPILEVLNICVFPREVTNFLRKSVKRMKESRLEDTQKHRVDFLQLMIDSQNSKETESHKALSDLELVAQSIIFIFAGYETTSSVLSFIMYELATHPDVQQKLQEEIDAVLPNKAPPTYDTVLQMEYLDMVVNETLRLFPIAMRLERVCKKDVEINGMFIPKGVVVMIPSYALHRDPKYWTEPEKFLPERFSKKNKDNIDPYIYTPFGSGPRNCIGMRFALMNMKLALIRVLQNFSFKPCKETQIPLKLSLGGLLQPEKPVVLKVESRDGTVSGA
ATP-binding cassette sub-family C member 2, sequence (Q92887 whole entry): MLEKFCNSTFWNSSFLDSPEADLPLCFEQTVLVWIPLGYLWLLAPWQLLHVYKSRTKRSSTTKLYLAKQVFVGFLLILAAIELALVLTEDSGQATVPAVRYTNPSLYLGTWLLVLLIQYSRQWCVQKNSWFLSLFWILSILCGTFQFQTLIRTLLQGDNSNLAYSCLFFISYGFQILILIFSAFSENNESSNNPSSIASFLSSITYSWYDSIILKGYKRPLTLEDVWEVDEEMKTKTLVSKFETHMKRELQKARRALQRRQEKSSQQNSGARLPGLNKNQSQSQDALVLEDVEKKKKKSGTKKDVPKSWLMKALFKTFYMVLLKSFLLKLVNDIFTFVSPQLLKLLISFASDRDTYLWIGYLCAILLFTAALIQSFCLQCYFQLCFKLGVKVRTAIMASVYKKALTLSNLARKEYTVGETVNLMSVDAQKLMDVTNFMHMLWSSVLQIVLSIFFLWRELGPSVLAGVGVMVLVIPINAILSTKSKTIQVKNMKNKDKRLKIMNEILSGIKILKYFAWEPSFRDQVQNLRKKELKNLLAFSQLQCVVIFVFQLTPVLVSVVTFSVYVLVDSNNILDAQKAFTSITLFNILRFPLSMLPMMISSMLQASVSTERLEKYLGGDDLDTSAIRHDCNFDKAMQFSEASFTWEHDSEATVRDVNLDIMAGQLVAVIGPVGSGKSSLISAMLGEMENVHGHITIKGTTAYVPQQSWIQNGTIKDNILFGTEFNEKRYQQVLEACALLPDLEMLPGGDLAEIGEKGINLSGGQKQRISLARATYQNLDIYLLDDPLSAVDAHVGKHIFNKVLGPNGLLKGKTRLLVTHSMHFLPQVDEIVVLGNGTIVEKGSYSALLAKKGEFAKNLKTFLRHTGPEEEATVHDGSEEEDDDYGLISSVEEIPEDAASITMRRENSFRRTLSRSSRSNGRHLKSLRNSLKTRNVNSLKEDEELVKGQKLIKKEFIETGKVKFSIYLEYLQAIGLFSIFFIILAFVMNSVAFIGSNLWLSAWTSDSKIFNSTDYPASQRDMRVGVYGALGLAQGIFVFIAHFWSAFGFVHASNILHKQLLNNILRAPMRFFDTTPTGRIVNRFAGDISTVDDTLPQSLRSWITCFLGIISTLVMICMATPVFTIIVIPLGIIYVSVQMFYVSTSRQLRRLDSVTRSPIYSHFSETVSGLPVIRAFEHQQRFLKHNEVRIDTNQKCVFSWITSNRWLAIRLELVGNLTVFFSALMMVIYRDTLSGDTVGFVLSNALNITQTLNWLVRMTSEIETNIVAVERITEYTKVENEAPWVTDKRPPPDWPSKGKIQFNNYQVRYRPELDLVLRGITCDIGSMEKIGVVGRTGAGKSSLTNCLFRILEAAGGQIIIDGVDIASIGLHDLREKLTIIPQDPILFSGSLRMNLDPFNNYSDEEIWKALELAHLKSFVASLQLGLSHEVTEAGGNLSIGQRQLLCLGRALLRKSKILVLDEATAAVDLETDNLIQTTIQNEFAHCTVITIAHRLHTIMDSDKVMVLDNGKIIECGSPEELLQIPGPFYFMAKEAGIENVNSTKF

COc1cc2c(cc1OC)CN(CCc1ccc(NC(=O)c3cc(OC)c(OC)cc3NC(=O)c3cnc4ccccc4c3)cc1)CC2
IC50 [1]: 0.237 µM | MRT [2]: 1.26 h | IC50 [3]: > 10 µM | inhibition at 0.1 µM [4]: 77% | inhibition at 1 µM [5]: 92% | CLH [6]: 39 µL/min/mg | IC50 [7]: > 10 µM | inhibition at 5 µM [8]: 96% | half-life [9]: > 1 h | CLH [10]: < 23 µL/min/mg | half-life [11]: 1.11 h | half-life [12]: 0.583 h | half-life [13]: > 1 h | IC50 [14]: 0.035 µM | Activity [15]: 5% | CLH [16]: < 23 µL/min/mg | inhibition at 0.01 µM [17]: 0% | CLH [18]: < 23 µL/min/mg | solubility thermodynamic ([19]; PBS): 0.44 µM (≈ 0.285 µg/mL) | inhibition at 10 µM [20]: 96% | IC50 [21]: 0.053 µM | EC50 [22]: 0.035 µM | half-life [23]: > 1 h

COc1cc(NC(=O)c2cnc3ccccc3c2)c(C(=O)Nc2ccc(N3CCN(Cc4cccc(-c5cccnc5)c4)CC3)cc2)cc1OC
recovery [24]: 60% | Papp A→B [25]: 1.29 ×10⁻⁶ cm/s | IC50 [26]: 1.09 µM | Activity [15]: 0% | Papp B→A [27]: 2.36 ×10⁻⁶ cm/s | IC50 [28]: 0.283 µM | solubility ([19]; buffer): Not Determined(Insoluble) | efflux ratio [29]: 1.8 | recovery [30]: 51% | EC50 [22]: 0.055 µM

CC(=O)O[C@H]1C(=O)[C@@]2(C)[C@H]([C@H](OC(=O)c3ccccc3)[C@]3(O)C[C@H](OC(=O)[C@H](O)[C@@H](NC(=O)c4ccccc4)c4ccccc4)C(C)=C1C3(C)C)[C@]1(OC(C)=O)CO[C@@H]1C[C@@H]2O [PACLITAXEL]
AUCt [31]: 95.9 ng·h/mL | recovery [24]: 66% | Papp A→B [25]: 0.41 ×10⁻⁶ cm/s | Cmax [32]: 14.9 ng/mL | MRT [33]: 5.37 h | Papp B→A [27]: 17.1 ×10⁻⁶ cm/s | Tmax [34]: 8 h | recovery [30]: 54%
